The source of these data is the supplement of paper PMC6045584.

± gives the standard deviation of the averaged measurements.

Compound in one test: O=C(O)C1(C(=O)O)CCC1.[NH2-].[NH2-].[Pt+2] [CARBOPLATIN]
Nature of the test: area under dose-response curve of surviving fraction (unscaled, Aref=0) (surviving fraction x log10(nM)); higher = more resistant. Conditions: exposure time: 5 days; dose range 0.5-1000 nM. In short, it runs like this: (§1)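 Tumour cell lines in 384-well plates were exposed to eight inhibitor concentrations, from 0.5 to 1000 nM, for five days, and viability was read by CellTiter-Glo luminescence in three screens per line. Signals were normalised to DMSO-only wells, and 3-parameter logistic regression in the drc R package fitted dose-response survival curves to the surviving fractions. Area under the curve is given as the unscaled activity area. That area is taken over log10 dose with Aref = 0.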

Compound in a further test: Cc1ccc(-c2cc(C(F)(F)F)nn2-c2ccc(S(N)(=O)=O)cc2)cc1 [CELECOXIB]
The description is as above. Conditions: exposure time: 5 days; dose range 0.5-1000 nM. In short, it runs like this:
as §1

Compound in a further test: COCC[n+]1c2c(n(Cc3cnccn3)c1C)C(=O)c1ccccc1C2=O [YM155]
Described as above. Conditions: exposure time: 5 days; dose range 0.5-1000 nM. In short, it runs like this:
as §1

Compound in another test: COc1cc2ncnc(Nc3ccc(F)c(Cl)c3)c2cc1OCCCN1CCOCC1 [GEFITINIB]
The description is as above. The settings on record: exposure time: 5 days; dose range 0.5-1000 nM. Put shortly:
as §1

Compound in test [1]: T1, CC[C@@]1(O)C(=O)OCc2c1cc1n(c2=O)Cc2cc3ccccc3nc2-1 [CAMPTOTHECIN]
The test is described as above. Conditions: exposure time: 5 days; dose range 0.5-1000 nM. In short, it runs like this: as §1

Compound in test [2]: CC(=O)c1c(C)c2cnc(Nc3ccc(N4CCNCC4)cn3)nc2n(C2CCCC2)c1=O
The description is as above. The settings on record: exposure time: 5 days; dose range 0.5-1000 nM. Put shortly:
as §1

Compound in the next test: CC(=O)O[C@H]1C(=O)[C@@]2(C)[C@H]([C@H](OC(=O)c3ccccc3)[C@]3(O)C[C@H](OC(=O)[C@H](O)[C@@H](NC(=O)c4ccccc4)c4ccccc4)C(C)=C1C3(C)C)[C@]1(OC(C)=O)CO[C@@H]1C[C@@H]2O [PACLITAXEL]
The description is as above. Conditions: exposure time: 5 days; dose range 0.5-1000 nM. Put shortly:
as §1

Compound in test [3]: CC(=O)NCC(=O)N1[C@@H]2CC[C@H]1c1ccc(Nc3ncc(C(F)(F)F)c(NC4CCC4)n3)cc12
The test is described as above. Conditions: exposure time: 5 days; dose range 0.5-1000 nM. Put shortly:
as §1

Compound in the next test: C[C@]1(O)C[C@@H](c2nc(-c3ccc4ccc(-c5ccccc5)nc4c3)c3c(N)nccn32)C1 [OSI-906]
The description is as above. The settings on record: exposure time: 5 days; dose range 0.5-1000 nM. Put shortly:
as §1

Compound in test [4]: T1, CAMPTOTHECIN
Nature of the test: surviving fraction relative to DMSO-only wells; higher = less growth inhibition. Conditions: exposure time: 5 days. Put shortly: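 Each tumour cell line was screened three times, and only lines with replicate Pearson r >0.7 and median Z' >0.3 were kept. Cells in log phase were seeded at 250–500 per well in 384-well plates, left 24 hours, then exposed continuously for five days to inhibitors at 0.5, 1, 5, 10, 50, 100, 500 and 1000 nM. Viability was read as CellTiter-Glo luminescence, with surviving fraction normalised to the median of DMSO-only wells.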

In the case of OS25HAL BONE, the “area under dose-response curve” value in the test with CARBOPLATIN is 3.56; with CELECOXIB, 3.54; with YM155, 0.935; with GEFITINIB, 3.55; in the test with CAMPTOTHECIN [1], 0.945; in test [2] it was 3.42. The “area under dose-response curve” value is 1.01 in the test with PACLITAXEL, 2.55 in test [3] and 2.57 with OSI-906. In addition, the surviving fraction with CAMPTOTHECIN [4] (0.5 nM) is 0.877 ± 0.013; in the test with CAMPTOTHECIN [4] (1 nM), 0.862 ± 0.037; with CAMPTOTHECIN [4] (5 nM) it was 0.475 ± 0.03; with CAMPTOTHECIN [4] (10 nM) it was 0.145 ± 0.022; with CAMPTOTHECIN [4] (50 nM), 0.055 ± 0.001; in the test with CAMPTOTHECIN [4] (100 nM), 0.0397 ± 0.0093. In addition, the surviving fraction was 0.0247 ± 0.0032 in the test with CAMPTOTHECIN [4] (500 nM) and 0.037 ± 0.0069 in the test with CAMPTOTHECIN [4] (1000 nM).
For MCF7 BREAST, the “area under dose-response curve” value came to 3.08 with CARBOPLATIN; 3.11 with CELECOXIB; 1.18 with YM155; 3.14 with GEFITINIB; 1.55 in the test with CAMPTOTHECIN [1]; 3.03 in test [2]. In addition, the “area under dose-response curve” value in the test with PACLITAXEL was found to be 1.43; in test [3], 2.53; in the test with OSI-906, 2.69. The surviving fraction with CAMPTOTHECIN [4] (0.5 nM) was determined as 0.731 ± 0.032; with CAMPTOTHECIN [4] (1 nM), 0.824 ± 0.025; with CAMPTOTHECIN [4] (5 nM), 0.696 ± 0.079; in the test with CAMPTOTHECIN [4] (10 nM), 0.556 ± 0.01; with CAMPTOTHECIN [4] (50 nM) it was 0.39 ± 0.0082; in the test with CAMPTOTHECIN [4] (100 nM), 0.354 ± 0.011. Moreover, the surviving fraction came out at 0.0642 ± 0.0025 with CAMPTOTHECIN [4] (500 nM) and 0.0648 ± 0.0052 in the test with CAMPTOTHECIN [4] (1000 nM).
As for CAL72 BONE, the “area under dose-response curve” value was 3.49 with CARBOPLATIN; 3.49 in the test with CELECOXIB; 1.02 with YM155; 3.5 with GEFITINIB; 1.67 in the test with CAMPTOTHECIN [1]; 3.69 in [2]. Besides, the “area under dose-response curve” value with PACLITAXEL was 0.96; in test [3], 2.9; with OSI-906, 3.22. In addition, the surviving fraction worked out at 0.985 ± 0.029 with CAMPTOTHECIN [4] (0.5 nM); 0.991 ± 0.021 with CAMPTOTHECIN [4] (1 nM); 0.955 ± 0.034 in the test with CAMPTOTHECIN [4] (5 nM); 0.762 ± 0.12 with CAMPTOTHECIN [4] (10 nM); 0.18 ± 0.022 with CAMPTOTHECIN [4] (50 nM); 0.118 ± 0.011 with CAMPTOTHECIN [4] (100 nM). Moreover, the surviving fraction with CAMPTOTHECIN [4] (500 nM) amounted to 0.0517 ± 0.0015; with CAMPTOTHECIN [4] (1000 nM), 0.0597 ± 0.0011.
HCC1395 BREAST: the “area under dose-response curve” value was found to be 3.87 with CARBOPLATIN; 4.09 with CELECOXIB; 2.28 with YM155; 3.91 with GEFITINIB; 2.09 in the test with CAMPTOTHECIN [1]; 3.96 in test [2]. In addition, the results for the “area under dose-response curve” value (with PACLITAXEL; in test [3]) were 1.76 and 3.19, respectively. Further, the surviving fraction is 0.71 ± 0.18 with CAMPTOTHECIN [4] (0.5 nM); 0.909 ± 0.071 with CAMPTOTHECIN [4] (1 nM); 0.788 ± 0.064 in the test with CAMPTOTHECIN [4] (5 nM); 0.732 ± 0.044 with CAMPTOTHECIN [4] (10 nM); 0.627 ± 0.029 in the test with CAMPTOTHECIN [4] (50 nM); 0.57 ± 0.086 with CAMPTOTHECIN [4] (100 nM). The surviving fraction in the test with CAMPTOTHECIN [4] (500 nM) stood at 0.421 ± 0.049; with CAMPTOTHECIN [4] (1000 nM), 0.344 ± 0.09.
With MDAMB134 BREAST, the “area under dose-response curve” value with CARBOPLATIN was 3.15; with CELECOXIB it was 3.59; with YM155, 2.43; in the test with GEFITINIB it was 3.62; with CAMPTOTHECIN [1], 2.11; in [2], 3.84. In addition, the “area under dose-response curve” value with PACLITAXEL worked out at 2.33; in test [3], 3.57; in the test with OSI-906 it was 2.32. Moreover, the surviving fraction came out at 0.662 ± 0.057 with CAMPTOTHECIN [4] (0.5 nM); 0.625 ± 0.048 in the test with CAMPTOTHECIN [4] (1 nM); 0.66 ± 0.016 with CAMPTOTHECIN [4] (5 nM); 0.587 ± 0.031 in the test with CAMPTOTHECIN [4] (10 nM); 0.602 ± 0.0085 in the test with CAMPTOTHECIN [4] (50 nM); 0.594 ± 0.0057 with CAMPTOTHECIN [4] (100 nM). The surviving fraction in the test with CAMPTOTHECIN [4] (500 nM) amounted to 0.587 ± 0.13; with CAMPTOTHECIN [4] (1000 nM), 0.518 ± 0.044.
With HCC1954 BREAST, the “area under dose-response curve” value in the test with CARBOPLATIN came to 3.62; in the test with CELECOXIB, 3.51; with YM155 it was 1.4; in the test with GEFITINIB, 2.73; with CAMPTOTHECIN [1], 0.947; in test [2], 3.1. For the same test system, the “area under dose-response curve” value with PACLITAXEL came out at 0.63; in test [3] it was 3.09; in the test with OSI-906, 1.26. The surviving fraction with CAMPTOTHECIN [4] (0.5 nM) is 0.381 ± 0.037; in the test with CAMPTOTHECIN [4] (1 nM) it was 0.362 ± 0.0088; in the test with CAMPTOTHECIN [4] (5 nM), 0.484 ± 0.033; with CAMPTOTHECIN [4] (10 nM) it was 0.517 ± 0.037; with CAMPTOTHECIN [4] (50 nM) it was 0.245 ± 0.046; with CAMPTOTHECIN [4] (100 nM), 0.172 ± 0.011. Further, the surviving fraction in the test with CAMPTOTHECIN [4] (500 nM) turned out to be 0.0478 ± 0.0088; with CAMPTOTHECIN [4] (1000 nM), 0.0365 ± 0.0021.
Regarding SIHA CERVIX, the “area under dose-response curve” value was found to be 3.82 with CARBOPLATIN; 3.52 with CELECOXIB; 1.48 with YM155; 3.44 in the test with GEFITINIB; 1.73 with CAMPTOTHECIN [1]; 0.974 with PACLITAXEL. For the same test system, the “area under dose-response curve” value amounted to 2.88 in test [3] and 3.17 with OSI-906. In addition, the surviving fraction with CAMPTOTHECIN [4] (0.5 nM) came out at 0.822 ± 0.017; with CAMPTOTHECIN [4] (1 nM) it was 0.889 ± 0.024; with CAMPTOTHECIN [4] (5 nM) it was 0.857 ± 0.033; in the test with CAMPTOTHECIN [4] (10 nM), 0.539 ± 0.1; with CAMPTOTHECIN [4] (50 nM) it was 0.44 ± 0.039; in the test with CAMPTOTHECIN [4] (100 nM) it was 0.377 ± 0.0053. The results for the surviving fraction in the test with CAMPTOTHECIN [4] (500 nM) and with CAMPTOTHECIN [4] (1000 nM) were 0.099 ± 0.0017 and 0.0593 ± 0.0023, respectively.
For HOSMNG BONE, the “area under dose-response curve” value with CARBOPLATIN was determined as 3.65; with CELECOXIB, 3.18; with YM155, 1.76; with GEFITINIB, 3.45; in the test with CAMPTOTHECIN [1], 1.82; in test [2] it was 3.41. Besides, the “area under dose-response curve” value worked out at 1.85 in the test with PACLITAXEL, 2.83 in test [3] and 3.13 with OSI-906. Further, the surviving fraction was 0.889 ± 0.11 with CAMPTOTHECIN [4] (0.5 nM); 0.973 ± 0.035 in the test with CAMPTOTHECIN [4] (1 nM); 0.863 ± 0.1 with CAMPTOTHECIN [4] (5 nM); 0.875 ± 0.042 in the test with CAMPTOTHECIN [4] (10 nM); 0.322 ± 0.035 in the test with CAMPTOTHECIN [4] (50 nM); 0.214 ± 0.0082 with CAMPTOTHECIN [4] (100 nM). Also, the surviving fraction with CAMPTOTHECIN [4] (500 nM) stood at 0.0427 ± 0.0038; with CAMPTOTHECIN [4] (1000 nM), 0.0287 ± 0.0015.
